Source: patent US5554359A, “Pigmentation enhancer and method” (priority 1994, dated 1996)
Like-named read-outs stand apart in the source and are kept apart here.

Tests used:
[1] = test system: tyrosinase activity in mouse melanoma cells; conditions: Cloudman S91; cited from earlier work
[2] = test system: tyrosinase activity in human melanocytes; assay: Tyrosinase responses in human melanocytes (Table 6); type: cell-based; conditions: Table 6, 10^-7 M except IBMX 10^-4 M, theophylline 1 mM, ammonium chloride 10 mM, A23187 not given, melanocytes from skin type III
Protocol: (§1) The mouse melanoma cell lines used to study the effects of lysosomotropic agents herein were the Cloudman S91 cell line (ATCC no. CCL 53.1) and two subclones of this line developed in our laboratory, the amelanotic line, AM-7, and a melanotic line, MEL-11A. All melanoma cell lines were grown in Ham's F-10 nutrient medium supplemented with 10% horse serum, penicillin (100 units/ml), and streptomycin (100 μg/ml). The normal human melanocyte cell strains used in this study were derived from foreskins of either neonares or from boys 2-6 years old. Human melanocyte cultures were grown in Ham's F-10 nutrient medium supplemented with 10% horse serum, 5% fetal bovine serum (FBS), 32 nM TPA (12-O-tetradecanoylphorbol 13-acetate), 10^-4 M IBMX(3-isobutyl-1-methylxanthine), penicillin (100 units/ml), and streptomycin (100 μg/ml).
(§2) To determine tyrosinase activity in situ in either melanoma cells or in human melanocyte cultures, the tyrosine hydroxylase activity of the enzyme was determined. Cells were seeded into 60-mm culture dishes at 2×10^5 cells/dish and allowed to attach overnight. The medium was then exchanged for the appropriate growth medium supplemented with 1 μCi/ml of [^3 H]tyrosine (L-ring-3,5-^3 H]-tyrosine, DuPont New England Nuclear), and with hormones, where indicated. Cells were grown in labeled medium for 24 hours, and at this time, the medium was removed and assayed for the presence of ^3 H2 O using the charcoal absorption method of Pomerantz. Tyrosinase activity in cell homogenates was determined by sonicating cell pellets in 0.1-M sodium phosphate buffer (pH 6.8) and then incubating 50-μl aliquots in 0.5 ml of a reaction mixture containing 0.1-mM tyrosine, 2 μCi/ml of [^3 H]tyrosine, 0.1-mM L-DOPA (dihydroxyphenylalanine), and 0.1 mM PMSF (phenylmethylsulfonyl fluoride) at 37° C. for 2 hours. Reactions were terminated by the addition of 1 ml of charcoal (10% w/v in 0.1-N HCl). Samples were centrifuged, and the supernatants removed for determination of the amount of ^3 H2 O produced.
Hormone responsiveness in human melanocyte cell cultures were examined (for these studies, melanocytes derived from skin type III were used). […] Tyrosinase activity and melanin content typically double with a 48-hour exposure to IBMX. […] The steroid hormones, for the most part, caused little, if any, change in tyrosinase activity at the concentrations used.

[3] = test system: tyrosinase activity in mouse melanoma cells; assay: Tyrosinase responses in mouse melanoma cells (Table 6); type: cell-based; conditions: for Effect on Tyrosinase Activity, Mouse Melanoma: Table 6, 10^-7 M except IBMX 10^-4 M, theophylline 1 mM, ammonium chloride 10 mM, A23187 not given
Protocol: as §1
as §2, with “produced. […]” for “produced.”

[4] = test system: tyrosinase activity in human foreskin organ cultures; assay: Tyrosinase activity in human foreskin organ cultures (tyrosine hydroxylase assay); type: cell-based; conditions: for activity at 1000 µM: Homo sapiens, read-out: Tyrosinase Activity, Percentage of control; for activity at 1000 µM / Tyrosinase activity stimulated, percentage of black foreskins / Tyrosinase activity unaffected, percentage of black foreskins / Tyrosinase activity stimulated, percentage of white foreskins / Tyrosinase activity unaffected, percentage of white foreskins: 72 h; for activity at 1000 µM / Tyrosinase Activity: Table 3, theophylline 1 mM, 3 days; for Tyrosinase activity stimulated, percentage of black foreskins / Tyrosinase activity unaffected, percentage of black foreskins / Tyrosinase activity stimulated, percentage of white foreskins / Tyrosinase activity unaffected, percentage of white foreskins: Table 1, Theophylline 1 mM, MSH 2 × 10^-7 M, dbcAMP 0.1 mM, D-phe-MSH 10^-8 M; for Tyrosinase activity stimulated, percentage of black foreskins / Tyrosinase activity unaffected, percentage of black foreskins: B = black; for Tyrosinase activity stimulated, percentage of white foreskins / Tyrosinase activity unaffected, percentage of white foreskins: W = white; for stimulation of tyrosinase activity: human foreskins, 72 hours
Protocol: At the time of surgical removal, human foreskins were placed on sterile gauze saturated with sterile IMDM medium (Iscove's modified Dulbecco's medium purchased from Irvine Scientific of Santa Ana, Calif.) for transportation from the Hospital nursery to the laboratory. The tissues were rinsed in sterile IMDM medium containing 500 U/ml penicillin and 500 μg/ml of streptomycin for 5 minutes. Under sterile conditions, an intradermal injection of medium was performed from the dermal side prior to dissection of the mucous membrane and lower dermis by scissors to make the thickness of skins equal. The foreskins were then cut into approximately 3 mm×3 mm squares and either frozen at -75° C. or placed in organ culture as described hereafter.
The organ culture medium was prepared from IMDM with glutamine supplemented with 20% horse serum, 5% fetal bovine serum, 100 U/ml penicillin, 100 μg/ml streptomycin and 3 mg/ml sodium bicarbonate. The serums were obtained from Hyclone Lab. Inc. of Logan Utah. Culture units were prepared by placing sterilized filters (AP20 025 00, Millipore) over sterilized support screens ([…] Swinnex filter support screens, Millipore) in the wells of 6-well tissue culture plates (Falcon 3046) with medium added to the wells such that the skin support screens floated and the filter absorbed the medium from beneath. The tissue samples were placed, epidermis up, on top of the saturated filters and incubated at 37° C. in a 5% CO2 humidified atmosphere. The medium was changed everyday. Harvested cultures were frozen at -75° C.
Tyrosinase activity in human skin organ cultures was determined by measuring the tyrosine hydroxylase activity of the enzyme. The assay measures the production of ^3 H2 O during the conversion of [^3 H]tyrosine to L-DOPA. Weighed skin preparations were incubated in 0.3 ml of a reaction mixture containing 0.01 mM of L-tyrosine, 5-6 uCi/ml of [^3 H]tyrosine and 0.1 mM L-DOPA in 0.1M of pH 6.8 phosphate buffer for 4 hours at 37° C. To terminate the reaction, 1 ml of phosphate buffer was added, the tubes vortexed, and 0.4 ml aliquots removed in triplicate and mixed with an equal volume of Norit SG activated charcoal (10% w/v, in 0.1N HCl). Following centrifugation at 2000×g for 10 min, the supernatants (0.5 ml) were placed in scintillation vials, scintillation fluid added, and vials counted in a TM Analytic 6895 scintillation counter equipped with a DPM processor.
Human foreskins were treated with the compounds shown in Table 1, placed in culture, and incubated for 72 hours. The skins were then assayed for tyrosinase activity with the tyrosine hydroxylase assay method as described herein.
The medium and compounds were changed daily. Tyrosinase activity was determined by measuring the tyrosine hydroxylase activity of the enzyme.
Human foreskin organ cultures were treated with the compounds listed in Table 3 for 3 days and tyrosinase activity determined as described herein. Theophylline was used at 1 mM.

[5] = test system: tyrosinase activity in human melanocytes from white-skinned individuals; assay: Tyrosinase activity in human melanocytes from white skin; type: cell-based; conditions: cell strain 69W; up to four hours; FIG. 8
Protocol: as §1, §2
Dose/response parameters for ammonium chloride action were determined. […] Since tyrosinase is the rate-limiting enzyme for melanin synthesis, the stimulation of this enzyme by ammonium chloride should lead to increased melanin content of stimulated cells. […] Ammonium chloride increased tyrosinase activity in melanocytes from white-skinned individuals twenty-fold within 24 hours and by this time melanin contents had increased two-fold. Two other lysosomotropic agents, monensin and nigericin, were tested for their effects on tyrosinase activity. […] Thus, lysosomotropic agents have the ability to stimulate tyrosinase activity and melanin production in human melanocytes derived from white-skinned individuals, and to reduce melanin production in melanocytes from black-skinned people.

[6] = White skin (control 0.31 ± 0.03)
[7] = first Black skin (control 2.55 ± 0.13)
[8] = second Black skin (control 3.09 ± 0.12)

Compound: Nc1ncnc2c1nc(Br)n2[C@@H]1O[C@@H]2COP(=O)(O)O[C@H]2[C@H]1O [8-bromo cAMP]
- mimicking of the MSH response [1]: mimicked

Compound: CNc1ccc2oc(C[C@H]3O[C@@]4(CC[C@H]3C)O[C@H]([C@H](C)C(=O)c3ccc[nH]3)[C@H](C)C[C@H]4C)nc2c1C(=O)O [A23187]
- Effect on Tyrosinase Activity, Human Melanocyte [2]: No effect
- Effect on Tyrosinase Activity, Mouse Melanoma [3]: Inhibited

Compound: C[C@]12CC[C@@H]3c4ccc(O)cc4CC[C@H]3[C@@H]1CC[C@@H]2O [Estradiol]
- Effect on Tyrosinase Activity, Human Melanocyte [2]: Inhibited
- Effect on Tyrosinase Activity, Mouse Melanoma [3]: No Effect

Compound: CC(=O)[C@H]1CC[C@H]2[C@@H]3CCC4=CC(=O)CC[C@]4(C)[C@H]3CC[C@]12C [Progesterone]
- Effect on Tyrosinase Activity, Human Melanocyte [2]: ± (100-150% of control)
- Effect on Tyrosinase Activity, Mouse Melanoma [3]: ± (100-150% of control)

Compound: CCCCC[C@H](O)/C=C/[C@H]1[C@H](O)CC(=O)[C@@H]1CCCCCCC(=O)O [Prostaglandin E1]
- Effect on Tyrosinase Activity, Human Melanocyte [2]: + (150-200%)

Compound: CCCCCCCCCCCCCC(=O)O[C@@H]1[C@@H](C)[C@@]2(O)[C@@H](C=C(CO)C[C@]3(O)C(=O)C(C)=C[C@@H]23)[C@@H]2C(C)(C)[C@]12OC(C)=O [TPA, 12-O-tetradecanoylphorbol 13-acetate]
- Effect on Tyrosinase Activity, Human Melanocyte [2]: No effect

Compound: C[C@]12CC[C@H]3[C@@H](CCC4=CC(=O)CC[C@@]43C)[C@@H]1CC[C@@H]2O [Testosterone]
- Effect on Tyrosinase Activity, Human Melanocyte [2]: No effect
- Effect on Tyrosinase Activity, Mouse Melanoma [3]: No effect

Compound: Cn1c(=O)c2[nH]cnc2n(C)c1=O [Theophylline, theophylline]
- mimicking of the MSH response [1]: mimicked
- activity at 1000 µM ([2]; Homo sapiens, Melanocyte, read-out: Effect on Tyrosinase Activity, Human Melanocyte): 150 to 200%
- activity at 1000 µM [4, 6]: 307%
- activity at 1000 µM [4, 7]: 212%
- activity at 1000 µM [4, 8]: 197%
- Tyrosinase activity stimulated, percentage of black foreskins [4]: 92%
- Tyrosinase activity unaffected, percentage of black foreskins [4]: 8%
- Tyrosinase activity stimulated, percentage of white foreskins [4]: 86%
- Tyrosinase activity unaffected, percentage of white foreskins [4]: 14%
- Tyrosinase Activity [4, 6]: 0.95 ± 0.05 pmoles ^3 H2 O/hr/mg skin
- Tyrosinase Activity [4, 7]: 5.40 ± 0.26 pmoles ^3 H2 O/hr/mg skin
- Tyrosinase Activity [4, 8]: 6.1 ± 0.24 pmoles ^3 H2 O/hr/mg skin
- stimulation of tyrosinase activity [4]: stronger stimulation of tyrosinase
- response of mouse melanoma cells ([3]; compounds that raise intracellular cAMP levels or MSH): respond vigorously

Compound: CC1(C)O[C@@H]2C[C@H]3[C@@H]4CCC5=CC(=O)C=C[C@]5(C)[C@@]4(F)[C@@H](O)C[C@]3(C)[C@]2(C(=O)CO)O1 [Triamcinolone acetonide]
- Effect on Tyrosinase Activity, Human Melanocyte [2]: ± (100-150% of control)
- Effect on Tyrosinase Activity, Mouse Melanoma [3]: ± (100-150% of control)

Compound: C=C1CC[C@H](O)C/C1=C/C=C1\CCC[C@]2(C)[C@@H]([C@H](C)CCCC(C)C)CC[C@@H]12 [Vitamin D3]
- Effect on Tyrosinase Activity, Human Melanocyte [2]: No effect
- Effect on Tyrosinase Activity, Mouse Melanoma [3]: No effect

Compound: CCCC(=O)Nc1ncnc2c1ncn2[C@@H]1O[C@@H]2COP(=O)(O)O[C@H]2[C@H]1OC(=O)CCC [dbcAMP, dibutyryl cyclic AMP]
- mimicking of the MSH response [1]: mimicked
- Tyrosinase activity stimulated, percentage of black foreskins [4]: 33%
- Tyrosinase activity unaffected, percentage of black foreskins [4]: 67%
- Tyrosinase activity stimulated, percentage of white foreskins [4]: 25%
- Tyrosinase activity unaffected, percentage of white foreskins [4]: 75%
- stimulation of tyrosinase activity [4]: less effective in stimulating tyrosinase activity

Compound: CC[C@@]1([C@@H]2O[C@@H]([C@H]3O[C@@](O)(CO)[C@H](C)C[C@@H]3C)C[C@@H]2C)CC[C@H]([C@]2(C)CC[C@]3(C[C@H](O)[C@@H](C)[C@@H]([C@@H](C)[C@@H](OC)[C@H](C)C(=O)O)O3)O2)O1 [monensin]
- stimulation of tyrosinase activity [5]: stimulated tyrosinase activity

Compound: CO[C@@H]1C[C@@H](C[C@H]2CC[C@H](C)[C@H]([C@@H](C)C(=O)O)O2)O[C@]2(O[C@](C)([C@H]3CC[C@@](C)([C@@H]4O[C@@H]([C@H]5O[C@@](O)(CO)[C@H](C)C[C@@H]5C)C[C@@H]4C)O3)C[C@H]2C)[C@@H]1C [nigericin]
- stimulation of tyrosinase activity [5]: stimulated tyrosinase activity

Compound: Insulin: Insulin
- Effect on Tyrosinase Activity, Human Melanocyte [2]: No effect
